# Experimental data as given in patent US6861561B2, “Substituted aromatic policyclic tertiary-heteroalkylamines useful for inhibiting cholesteryl ester transfer protein activity” (G. D. Searle & Co., priority 1999, dated 2005).
# Biological target: T1, Human recombinant CETP (Homo sapiens, UniProt P11597)
# T1 construct: made in house; host or cells: CHO cells (serum-free conditioned medium)
# T1 sequence (P11597 18-493): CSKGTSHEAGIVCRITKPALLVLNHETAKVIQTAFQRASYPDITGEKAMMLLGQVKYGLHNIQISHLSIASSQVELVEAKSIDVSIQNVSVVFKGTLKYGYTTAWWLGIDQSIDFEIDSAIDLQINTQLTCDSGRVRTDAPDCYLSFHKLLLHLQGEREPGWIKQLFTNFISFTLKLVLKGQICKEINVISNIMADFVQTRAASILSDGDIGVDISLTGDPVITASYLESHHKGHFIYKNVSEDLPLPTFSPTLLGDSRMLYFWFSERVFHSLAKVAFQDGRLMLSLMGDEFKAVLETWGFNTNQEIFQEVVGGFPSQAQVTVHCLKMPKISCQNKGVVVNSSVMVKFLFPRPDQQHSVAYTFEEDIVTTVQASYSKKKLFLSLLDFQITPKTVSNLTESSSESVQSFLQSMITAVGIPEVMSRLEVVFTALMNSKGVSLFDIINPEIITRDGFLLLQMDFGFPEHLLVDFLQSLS
# Test: Assay of CETP Inhibition Using Purified Components (Reconstituted Buffer Assay)
# Format: biochemical
# Conditions: transfer of [3H]CE from HDL to LDL; 2 hours at 37° C.
# Description: Assay of CETP Inhibition Using Purified Components (Reconstituted Buffer Assay)
# The ability of compounds to inhibit CETP activity was assessed using an in vitro assay that measured the rate of transfer of radiolabeled cholesteryl ester ([^3H]CE) from HDL donor particles to LDL acceptor particles. Details of the assay are provided by Glenn, K. C. et al. (Glenn and Melton, “Quantification of Cholesteryl Ester Transfer Protein (CETP): A) CETP Activity and B) Immunochemical Assay of CETP Protein,” Meth. Enzymol., 263, 339-351 (1996)). Human recombinant CETP can be obtained from the serum-free conditioned medium of CHO cells transfected with a cDNA for CETP and purified as described by Wang, S. et al. (J. Biol. Chem. 267, 17487-17490 (1992)). To measure CETP activity, [^3H]CE-labeled-HDL, LDL, CETP and assay buffer (50 mM tris(hydroxymethyl)aminomethane, pH 7.4; 150 mM sodium chloride; 2 mM ethylenediamine-tetraacetic acid (EDTA); 1% bovine serum albumin) were incubated in a final volume of 200 μL, for 2 hours at 37° C. in 96 well plates. Inhibitors were included in the assay by diluting from a 10 mM DMSO stock solution into 16% (v/v) aqueous DMSO so that the final concentration of inhibitor was 800 μM. The inhibitors were then diluted 1:1 with CETP in assay buffer, and then 25 μL of that solution was mixed with 175 μL of lipoprotein pool for assay. Following incubation, LDL was differentially precipitated by the addition of 50 μL of 1% (w/v) dextran sulfate/0.5 M magnesium chloride, mixed by vortex, and incubated at room temperature for 10 minutes. A potion of the solution (200 μL) was transferred to a filter plate (Millipore). After filtration, the radioactivity present in the precipitated LDL was measured by liquid scintillation counting. […] The rate of [^3H]CE transfer using this assay was linear with respect to time and CETP concentration, up to 25-30% of [^3H]CE transferred.
# This value was defined as the IC50.
row,SMILES,IC50
1,"OCC(c1ccc(C(F)(F)F)cc1)N(Cc1cccc(OC(F)(F)F)c1)c1cccc(Oc2ccccc2)c1 (stereo not shown) [1B, 2-[(3-phenoxy)phenyl[[(3-trifluoromethoxy)phenyl]methyl]amino]-2-[(4-trifluoromethyl)phenyl]ethanol]",6 µM
2,"OC(CN(Cc1cccc(OC(F)(F)F)c1)c1cccc(Oc2ccccc2)c1)c1ccc(C(F)(F)F)cc1 (stereo not shown) [EX-1A, 2-[(3-phenoxy)phenyl[[(3-trifluoromethoxy)phenyl]methyl]amino]-1-[(4-trifluoromethyl)phenyl]ethanol]",18 µM
3,CCCC(O)CN(Cc1cccc(OC(F)(F)F)c1)c1cccc(Oc2ccccc2)c1 (stereo not shown) [Example 2],3.6 µM
4,OC(CN(Cc1cccc(OC(F)(F)F)c1)c1cccc(Oc2ccccc2)c1)c1ccccc1 (stereo not shown) [Example 3],44 µM
5,C=CC(O)CN(Cc1cccc(OC(F)(F)F)c1)c1cccc(Oc2ccccc2)c1 (stereo not shown) [Example 4],> 50 µM
6,OC(Cc1ccccc1)CN(Cc1cccc(OC(F)(F)F)c1)c1cccc(Oc2ccccc2)c1 (stereo not shown) [Example 5],> 50 µM
7,OC(COc1ccc(Cl)cc1)CN(Cc1cccc(OC(F)(F)F)c1)c1cccc(Oc2ccccc2)c1 (stereo not shown) [Example 6],> 100 µM
8,OC(COCc1ccco1)CN(Cc1cccc(OC(F)(F)F)c1)c1cccc(Oc2ccccc2)c1 (stereo not shown) [Example 7],> 100 µM
9,OCC(c1cccc(C(F)(F)F)c1)N(Cc1cccc(OC(F)(F)F)c1)c1cccc(Oc2ccccc2)c1 (stereo not shown) [Example 8],7 µM
10,COC(=O)C(C)(O)CN(Cc1cccc(OC(F)(F)F)c1)c1cccc(Oc2ccccc2)c1 (stereo not shown) [Example 9],24 µM
11,OC(CN(Cc1cccc(OC(F)(F)C(F)F)c1)c1cccc(Oc2ccccc2)c1)c1ccccc1 (stereo not shown) [Example 10],57 µM
12,OC1CCCCC1N(Cc1cccc(OC(F)(F)F)c1)c1cccc(Oc2ccccc2)c1 (stereo not shown) [Example 26],15 µM
13,"FC(F)(F)Oc1cccc(CN(CCc2ccc(C(F)(F)F)cc2)c2cccc(Oc3ccccc3)c2)c1 [Example 27, N-[(3-phenoxy)phenyl]-N-[[(3-trifluoromethoxy)phenyl]methyl]-2-[(4-trifluoromethyl)phenyl]ethanamine]",> 100 µM
14,"FC(CN(Cc1cccc(OC(F)(F)F)c1)c1cccc(Oc2ccccc2)c1)c1ccc(C(F)(F)F)cc1 (stereo not shown) [Example 28, N-[(3-phenoxy)phenyl]-N-[[(3-trifluoromethoxy)phenyl]methyl]-2-[(4-trifluoromethyl)phenyl]-2-fluoro-ethanamine]",> 100 µM
15,CCCC(O)CN(Cc1cccc(OC(F)(F)F)c1)Cc1cccc(OC(F)(F)F)c1 (stereo not shown) [compound 11],30 µM
16,OC(Cc1ccccc1)CN(Cc1cccc(OC(F)(F)F)c1)Cc1cccc(OC(F)(F)F)c1 (stereo not shown) [compound 12],14 µM

# Continued, values first:
row,IC50,SMILES
1,80 µM,COCC(O)CN(Cc1cccc(OC(F)(F)F)c1)Cc1cccc(OC(F)(F)F)c1 (stereo not shown) [compound 13]
2,90 µM,CC(O)CN(Cc1cccc(OC(F)(F)F)c1)Cc1cccc(OC(F)(F)F)c1 (stereo not shown) [compound 14]
3,> 100 µM,CCOC(=O)C(O)CN(Cc1cccc(OC(F)(F)F)c1)Cc1cccc(OC(F)(F)F)c1 (stereo not shown) [compound 15]
4,> 100 µM,OCC(O)CN(Cc1cccc(OC(F)(F)F)c1)Cc1cccc(OC(F)(F)F)c1 (stereo not shown) [compound 16]
5,> 100 µM,OC(COc1ccccc1)CN(Cc1cccc(OC(F)(F)F)c1)Cc1cccc(OC(F)(F)F)c1 (stereo not shown) [compound 17]
6,> 100 µM,OC(COc1ccc(Cl)cc1)CN(Cc1cccc(OC(F)(F)F)c1)Cc1cccc(OC(F)(F)F)c1 (stereo not shown) [compound 18]
7,> 100 µM,OC(CN1CCOCC1)CN(Cc1cccc(OC(F)(F)F)c1)Cc1cccc(OC(F)(F)F)c1 (stereo not shown) [compound 19]
8,> 100 µM,O=C1c2ccccc2C(=O)N1CC(O)CN(Cc1cccc(OC(F)(F)F)c1)Cc1cccc(OC(F)(F)F)c1 (stereo not shown) [compound 20]
9,> 100 µM,COc1ccc(OCC(O)CN(Cc2cccc(OC(F)(F)F)c2)Cc2cccc(OC(F)(F)F)c2)cc1 (stereo not shown) [compound 21]
